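Five compound concentrations were applied to cells in 96-well plates for 48 hours; endpoints were derived by simple linear interpolation of the resulting dose-response curve. Definition used: TGI = concentration required for complete inhibition of growth.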

The results in this text go back to PubChem BioAssay (NCI).

The first test deals with SK-MEL-2 melanoma. The experiment in a line: NCI tumour cell line growth inhibition, 48 h.
For the compound `C/C=C1\CN2CCc3c([nH]c4ccccc34)C2CC1C(=O)OC` (stereo not given), the TGI was > 322 µM.

In another test the test system is SK-MEL-28 melanoma. The experiment in a line: NCI tumour cell line growth inhibition, 48 h.
Take `CN(N=O)C(=O)ON1C(=O)CCC1=O`: the TGI is > 100 µM.
Still for that read-out and setting: then `O=C1OC2(CC1C1(O)C3CC4CC(C3)CC1C4)C1CC3CC(C1)CC2C3` (stereo not given), with > 100 µM.
`O=c1[nH]cc(COCCCO)c(=O)[nH]1`: the TGI is > 100 µM.
For the compound `C/C=C1\CN2CCc3c([nH]c4ccccc34)C2CC1C(=O)OC` (stereo not given), the TGI is > 322 µM.

For the next test, the system named is SK-MEL-5 melanoma. Nature of the test: NCI tumour cell line growth inhibition, 48 h.
In the case of `CN(N=O)C(=O)ON1C(=O)CCC1=O`, the TGI is > 100 µM.
Still for that read-out and setting: then `O=C1OC2(CC1C1(O)C3CC4CC(C3)CC1C4)C1CC3CC(C1)CC2C3` (stereo not given), with > 100 µM.
On the same count and under the same terms, the figure for `O=c1[nH]cc(COCCCO)c(=O)[nH]1` is > 100 µM; for `C/C=C1\CN2CCc3c([nH]c4ccccc34)C2CC1C(=O)OC` (stereo not given) it is > 322 µM.

The test system of the next test is SK-OV-3 ovarian. The experiment in a line: NCI tumour cell line growth inhibition, 48 h.
Consider `CN(N=O)C(=O)ON1C(=O)CCC1=O`, for which the TGI is > 100 µM.
The same measure, in the same setting: the figure for `O=c1[nH]cc(COCCCO)c(=O)[nH]1` is > 100 µM; for `C/C=C1\CN2CCc3c([nH]c4ccccc34)C2CC1C(=O)OC` (stereo not given) it is > 322 µM.

In another test the test system is SN12C renal. Nature of the test: NCI tumour cell line growth inhibition, 48 h.
For `O=C1OC2(CC1C1(O)C3CC4CC(C3)CC1C4)C1CC3CC(C1)CC2C3` (stereo not given), the TGI was > 100 µM.
With `O=c1[nH]cc(COCCCO)c(=O)[nH]1`, the TGI is > 100 µM.
Same read-out and setting: then `C/C=C1\CN2CCc3c([nH]c4ccccc34)C2CC1C(=O)OC` (stereo not given), with > 322 µM.

A further test relates to SNB-19 CNS. Nature of the test: NCI tumour cell line growth inhibition, 48 h.
`CN(N=O)C(=O)ON1C(=O)CCC1=O`: the TGI is > 100 µM.
The same measure, in the same setting: then `O=c1[nH]cc(COCCCO)c(=O)[nH]1`, with > 100 µM.
In the case of `C/C=C1\CN2CCc3c([nH]c4ccccc34)C2CC1C(=O)OC` (stereo not given), the TGI is > 322 µM.

For the next test, the system named is SNB-75 CNS. Nature of the test: NCI tumour cell line growth inhibition, 48 h.
Turning to `CN(N=O)C(=O)ON1C(=O)CCC1=O`, the TGI was > 100 µM.
Same read-out and setting: then `O=C1OC2(CC1C1(O)C3CC4CC(C3)CC1C4)C1CC3CC(C1)CC2C3` (stereo not given), with > 100 µM; and `O=c1[nH]cc(COCCCO)c(=O)[nH]1`, with > 100 µM.

The subject of another test is SNB-78 CNS. Nature of the test: NCI tumour cell line growth inhibition, 48 h.
As for `CN(N=O)C(=O)ON1C(=O)CCC1=O`, the TGI was > 100 µM.
In the case of `O=C1OC2(CC1C1(O)C3CC4CC(C3)CC1C4)C1CC3CC(C1)CC2C3` (stereo not given), the TGI was > 100 µM.
The same measure, in the same setting: then `O=c1[nH]cc(COCCCO)c(=O)[nH]1`, with > 100 µM.

The test system of a further test is SR leukemia. The experiment in a line: NCI tumour cell line growth inhibition, 48 h.
As to `O=c1[nH]cc(COCCCO)c(=O)[nH]1`, the TGI was > 100 µM.
Same read-out and setting: the figure for `C/C=C1\CN2CCc3c([nH]c4ccccc34)C2CC1C(=O)OC` (stereo not given) is > 322 µM.

The subject of a further test is SW-620 colon. The experiment in a line: NCI tumour cell line growth inhibition, 48 h.
As for `CN(N=O)C(=O)ON1C(=O)CCC1=O`, the TGI is > 100 µM.
The same measure, in the same setting: the figure for `O=C1OC2(CC1C1(O)C3CC4CC(C3)CC1C4)C1CC3CC(C1)CC2C3` (stereo not given) is > 100 µM; for `O=c1[nH]cc(COCCCO)c(=O)[nH]1` it is > 100 µM.
On the same count and under the same terms, then `C/C=C1\CN2CCc3c([nH]c4ccccc34)C2CC1C(=O)OC` (stereo not given), with > 322 µM.

A further test has as its system TK-10 renal. The experiment in a line: NCI tumour cell line growth inhibition, 48 h.
On to `CN(N=O)C(=O)ON1C(=O)CCC1=O`, for which the TGI was > 100 µM.
Still for that read-out and setting: the figure for `O=C1OC2(CC1C1(O)C3CC4CC(C3)CC1C4)C1CC3CC(C1)CC2C3` (stereo not given) is > 100 µM; for `O=c1[nH]cc(COCCCO)c(=O)[nH]1` it is > 100 µM; for `C/C=C1\CN2CCc3c([nH]c4ccccc34)C2CC1C(=O)OC` (stereo not given) it is > 322 µM.

Another test has as its system U251 CNS. The experiment in a line: NCI tumour cell line growth inhibition, 48 h.
With `O=c1[nH]cc(COCCCO)c(=O)[nH]1`, the TGI is > 100 µM.
Still for that read-out and setting: the figure for `C/C=C1\CN2CCc3c([nH]c4ccccc34)C2CC1C(=O)OC` (stereo not given) is > 322 µM.

The test system of another test is UACC-257 melanoma. Nature of the test: NCI tumour cell line growth inhibition, 48 h.
For `CN(N=O)C(=O)ON1C(=O)CCC1=O`, the TGI was > 100 µM.
`O=C1OC2(CC1C1(O)C3CC4CC(C3)CC1C4)C1CC3CC(C1)CC2C3` (stereo not given): the TGI was > 100 µM.
On the same count and under the same terms, the figure for `O=c1[nH]cc(COCCCO)c(=O)[nH]1` is > 100 µM; for `C/C=C1\CN2CCc3c([nH]c4ccccc34)C2CC1C(=O)OC` (stereo not given) it is > 322 µM.

A further test deals with UACC-62 melanoma. The experiment in a line: NCI tumour cell line growth inhibition, 48 h.
As to `CN(N=O)C(=O)ON1C(=O)CCC1=O`, the TGI is > 100 µM.
On the same count and under the same terms, then `O=C1OC2(CC1C1(O)C3CC4CC(C3)CC1C4)C1CC3CC(C1)CC2C3` (stereo not given), with > 100 µM; and `O=c1[nH]cc(COCCCO)c(=O)[nH]1`, with > 100 µM; and `C/C=C1\CN2CCc3c([nH]c4ccccc34)C2CC1C(=O)OC` (stereo not given), with > 322 µM.

A further test has as its system UO-31 renal. The experiment in a line: NCI tumour cell line growth inhibition, 48 h.
Consider `CN(N=O)C(=O)ON1C(=O)CCC1=O`, for which the TGI is > 100 µM.
On the same count and under the same terms, the figure for `O=C1OC2(CC1C1(O)C3CC4CC(C3)CC1C4)C1CC3CC(C1)CC2C3` (stereo not given) is > 100 µM; for `O=c1[nH]cc(COCCCO)c(=O)[nH]1` it is > 100 µM.

The subject of a further test is XF 498 CNS. The experiment in a line: NCI tumour cell line growth inhibition, 48 h.
`O=C1OC2(CC1C1(O)C3CC4CC(C3)CC1C4)C1CC3CC(C1)CC2C3` (stereo not given): the TGI is > 100 µM.
The same measure, in the same setting: the figure for `O=c1[nH]cc(COCCCO)c(=O)[nH]1` is > 100 µM; for `C/C=C1\CN2CCc3c([nH]c4ccccc34)C2CC1C(=O)OC` (stereo not given) it is > 322 µM.
